The results in this text go back to patent publication EP0988300B1, “BENZO(5,6)CYCLOHEPTA(1,2-B)PYRIDINE DERIVATIVES FOR THE INHIBITION OF FARNESYL PROTEIN TRANSFERASE” (SCHERING CORPORATION, priority 1997, dated 1998).

The test system of one test is COS Cell. Nature of the test: COS Cell IC50 (Cell-Based Assay), procedures of WO 95/10516. As for the experimental part: FPT IC50 (inhibition of farnesyl protein transferase, in vitro enzyme assay) was determined following the assay procedures described in WO 95/10516, published April 20, 1995. GGPT IC50 (inhibition of geranylgeranyl protein transferase, in vitro enzyme assay), COS Cell IC50 (Cell-Based Assay), Cell Mat Assay, and anti-tumor activity (in vivo anti-tumor studies) could be determined by the assay procedures described in WO 95/10516. The disclosure of WO 95/10516 is incorporated herein by reference thereto.

A further test relates to Human tumor cells. Nature of the test: Soft Agar Assay (anchorage-independent growth, colony count after MTT staining). It counts as cell-based. On the procedure:
Anchorage-independent growth is a characteristic of tumorigenic cell lines. Human tumor cells can be suspended in growth medium containing 0.3% agarose and an indicated concentration of a farnesyl transferase inhibitor. The solution can be overlayed onto growth medium solidified with 0.6% agarose containing the same concentration of farnesyl transferase inhibitor as the top layer. After the top layer is solidified, plates can be incubated for 10-16 days at 37°C under 5% CO2 to allow colony outgrowth. After incubation, the colonies can be stained by overlaying the agar with a solution of MTT (3-[4,5-dimethyl-thiazol-2-yl]-2,5-diphenyltetrazolium bromide, Thiazolyl blue) (1 mg/mL in PBS). Colonies can be counted and the IC50's can be determined.

Another test has as its target T1, human FPT (Homo sapiens, UniProt P49354+P49356).
T1 construct: made in house; host or cells: Baculovirus/Sf-9 insect cells
The test is described as follows: FPT pM IC50 Assay (scintillation proximity assay, biotin-CVLS and (1-3H)-FPP substrates). It counts as biochemical. As to conditions: 30 pM human FPT, 176 nM FPP, 100 nM biotin-CVLS, 37° C for 1 hour. On the procedure:
The enzymatic reaction is performed in 50 mM Tris, 5 µM ZnCl2, 5 mM MgCl2, 0.01 % Triton X-100, 5 mM dithiolthreitol (DTT), pH 7.7 (Buffer R) at 37° C for 1 hour. The purified human FPT (> 95 % pure) was derived from a Baculovirus/Sf-9 expression system. The peptide substrate used was biotin-CVLS (SynPep Corp., Dublin, CA) and (1-^3H)-FPP (21.5 Ci/mmol) was obtained from New England Nuclear Life Science Products (Boston, MA). Compounds were initially dissolved to a final concentration of 4 mg/ml in 100 % DMSO and then to 0.25 µg/ml in 100 % DMSO. Subsequent dilutions of the compound were performed in Buffer R.
The enzymatic reaction is performed in a final volume of 100 µl. Reactions are carried out in a 96 well plate format. […] The reaction is stopped using 150 µl of the Stop Solution consisting of 1.3 mg/ml scintillation beads (strepavidin-coated scintillation proximity beads from. Amersham (Arlington Heights, IL), 250 mM EDTA, pH 8.0 and 0.5 % BSA. The radioactivity is measured after 20 minutes at room temperature.
Compounds are evaluated for their ability to inhibit the reaction by measuring the concentration-dependent percent inhibition of the reaction. […] The enzymatic activity was recorded by measuring the CPM/well using a Wallac 1204 Betaplate BS liquid scintillation counter. […]
Background: SPA uses beads or plates that emit light when radiolabelled molecules are held near them.

Structures are written as SMILES.

For the compound `O=C(Cc1cc[n+]([O-])cc1)N1CCN(C2c3ccc(Cl)cc3CCc3cc(Br)c[n+]([O-])c32)CC1` (centres unmarked) [Example 7], the IC50 (in general, the concentration that gives 50% inhibition) in the test on COS Cell was 9 to 85 nM; in the test on Human tumor cells it was 25 to 183 nM; against human FPT, 440 pM.
`NC(=O)N1CCC(CC(=O)N2CCN([C@@H]3c4ccc(Cl)cc4CCc4cc(Br)c[n+]([O-])c43)CC2)CC1` [Example 10] showed an IC50 against human FPT of 410 pM.
Turning to `O=C(Cc1cc[n+]([O-])cc1)N1CCC([C@@H]2c3c(Br)cc(Cl)cc3CCc3cc(Br)c[n+]([O-])c32)CC1` [Example 3], the half-inhibitory concentration (IC50) in the test on COS Cell was 9 to 85 nM; in the test on Human tumor cells, 25 to 183 nM.
For `NC(=O)N1CCC(CC(=O)N2CCC([C@@H]3c4c(Br)cc(Cl)cc4CCc4cc(Br)c[n+]([O-])c43)CC2)CC1` [Example 2], in that order: 9 to 85 nM and 25 to 183 nM.
